# Measurements published in patent US10646488B2 (Araxes Pharma LLC, priority 2016, dated 2020).
# Molecular target: T1, KRAS G12C 1-169, his-tagged protein, GDP-loaded (Homo sapiens, UniProt P01116, G12C)
# T1 construct: KRAS G12C 1-169, his-tagged protein, GDP-loaded
# Test: Covalent binding (% modification) to KRAS G12C by mass spectrometry; further: test concentration or dose not given here
# Settings: covalent binding to KRAS G12C after a ten minute incubation period
row,SMILES,Binding %
1,"C=CC(=O)N1C[C@@H](C)N(c2nc(N)nc3c(F)c(-c4c(O)cccc4F)c(Cl)cc23)[C@@H](C)C1 [Compound 17, 1-((3S,5R)-4-(2-amino-6-chloro-8-fluoro-7-(2-fluoro-6-hydroxyphenyl)quinazolin-4-yl)-3,5-dimethylpiperazin-1-yl)prop-2-en-1-one]",++ (++ indicates binding activity from 50 to 90%)
2,"C=CC(=O)N1CCN(c2nc(N)nc3c(F)c(-c4c(O)cccc4F)c(Cl)cc23)C[C@H]1C [Compound 1, 1-((2R)-4-(2-amino-6-chloro-8-fluoro-7-(2-fluoro-6-hydroxyphenyl)quinazolin-4-yl)-2-methylpiperazin-1-yl)prop-2-en-1-one]",++ (++ indicates binding activity from 50 to 90%)
3,"C=CC(=O)N1[C@H](C)CN(c2nc(OCCc3ccccn3)nc3c(F)c(-c4c(O)cccc4F)c(Cl)cc23)C[C@@H]1C [Compound 36, 1-((2R,6S)-4-(6-chloro-8-fluoro-7-(2-fluoro-6-hydroxyphenyl)-2-(2-(pyridin-2-yl)ethoxy)quinazolin-4-yl)-2,6-dimethyl-piperazin-1-yl) prop-2-en-1-one]",++ (++ indicates binding activity from 50 to 90%)
4,"C=CC(=O)N1C[C@@H](C)N(c2nc(N3CC(N(C)C)C3)nc3c(F)c(-c4c(O)cccc4F)c(Cl)cc23)C[C@H]1C [Compound 80, 1-((2R,5R)-4-(6-chloro-2-(3-(dimethylamino)azetidin-1-yl)-8-fluoro-7-(2-fluoro-6-hydroxyphenyl)quinazolin-4-yl)-2,5-dimethyl-piperazin-1-yl) prop-2-en-1-one]",+ (+ indicates binding activity up to 50%)
5,"C=CC(=O)N1C[C@H](C)N(c2nc(N3CC(N(C)C)C3)nc3c(F)c(-c4c(O)cccc4F)c(Cl)cc23)C[C@H]1C (atropisomer, axis not shown) [Compound 53, 1-((2R,5S)-4-((R)-6-chloro-2-(3-(dimethylamino)azetidin-1-yl)-8-fluoro-7-(2-fluoro-6-hydroxyphenyl)quinazolin-4-yl)-2,5-dimethyl-piperazin-1-yl) prop-2-en-1-one]",+ (+ indicates binding activity up to 50%)
6,"C=CC(=O)N1CCN(c2nc(N3CC(O)C3)nc3c(F)c(-c4c(O)cccc4F)c(Cl)cc23)[C@@H](C)C1 [Compound 34, 1-((3S)-4-(6-chloro-8-fluoro-7-(2-fluoro-6-hydroxyphenyl)-2-(3-hydroxy-azetidin-1-yl)quinazolin-4-yl)-3-methyl-piperazin-1-yl) prop-2-en-1-one]",++ (++ indicates binding activity from 50 to 90%)
7,"C=CC(=O)N1[C@H](C)CN(c2nc(N)nc3c(F)c(-c4cc(O)cc5ccccc45)c(Cl)cc23)C[C@@H]1C [Compound 7, 1-((2S,6R)-4-(2-amino-6-chloro-8-fluoro-7-(3-hydroxynaphthalen-1-yl)quinazolin-4-yl)-2,6-dimethyl-piperazin-1-yl) prop-2-en-1-one]",++ (++ indicates binding activity from 50 to 90%)
8,"C=CC(=O)N1CCN(c2nc(N)nc3c(F)c(-c4c(C)ccc5cn[nH]c45)c(Cl)cc23)[C@@H](C)C1 [Compound 5, 1-((3S)-4-(2-amino-6-chloro-8-fluoro-7-(6-methyl-1H-indazol-7-yl)quinazolin-4-yl)-3-methylpiperazin-1-yl)prop-2-en-1-one]",++ (++ indicates binding activity from 50 to 90%)
9,"C=CC(=O)N1C[C@H](C)N(c2nc(N3CC(N(C)C)C3)nc3c(F)c(-c4c(O)cccc4F)c(Cl)cc23)C[C@H]1C [Compound 24, 1-((2R,5S)-4-(6-chloro-2-(3-(dimethylamino)azetidin-1-yl)-8-fluoro-7-(2-fluoro-6-hydroxyphenyl)quinazolin-4-yl)-2,5-dimethyl-piperazin-1-yl) prop-2-en-1-one]",++ (++ indicates binding activity from 50 to 90%)
10,"C=CC(=O)N1C[C@@H](C)N(c2nc(N)nc3c(F)c(-c4cc(O)cc5ccccc45)c(Cl)cc23)[C@@H](C)C1 [Compound 18, 1-((3S,5R)-4-(2-amino-6-chloro-8-fluoro-7-(3-hydroxynaphthalen-1-yl)quinazolin-4-yl)-3,5-dimethyl-piperazin-1-yl) prop-2-en-1-one]",++ (++ indicates binding activity from 50 to 90%)
11,"C=CC(=O)N1CCN(c2nc(OCCN3CC(F)(F)C3)nc3c(F)c(-c4c(O)cccc4F)c(Cl)cc23)C[C@H]1C (atropisomer, axis not shown) [Compound 62, 1-((R)-4-((R)-6-chloro-2-(2-(3,3-difluoroazetidin-1-yl)ethoxy)-8-fluoro-7-(2-fluoro-6-hydroxyphenyl)quinazolin-4-yl)-2-methyl-piperazin-1-yl) prop-2-en-1-one]",+ (+ indicates binding activity up to 50%)
12,"C=CC(=O)N1[C@H](C)CN(c2nc(N3CC(N(C)C)C3)nc3c(F)c(-c4c(C)ccc5cn[nH]c45)c(Cl)cc23)C[C@@H]1C [Compound 27, 1-((2R,6S)-4-(6-chloro-2-(3-(dimethylamino)azetidin-1-yl)-8-fluoro-7-(6-methyl-1H-indazol-7-yl)quinazolin-4-yl)-2,6-dimethyl-piperazin-1-yl) prop-2-en-1-one]",++ (++ indicates binding activity from 50 to 90%)

# Same assay, conditions: covalent binding to KRAS G12C after a three minute incubation period
row,SMILES,Binding %
1,"C=CC(=O)N1C[C@H](C)N(c2nc(N3CC(N(C)C4CC4)C3)nc3c(F)c(-c4c(O)cccc4F)c(Cl)cc23)C[C@H]1C [Compound 106, 1-((2R,5S)-4-(6-chloro-2-(3-(cyclopropyl (methyl)amino)azetidin-1-yl)-8-fluoro-7-(2-fluoro-6-hydroxyphenyl)quinazolin-4-yl)-2,5-dimethyl-piperazin-1-yl) prop-2-en-1-one]",++ (++ indicates binding activity from 50 to 90%)
2,"C=CC(=O)N1C[C@H](C)N(c2nc(N3CC(N(C)CC(F)F)C3)nc3c(F)c(-c4c(O)cccc4F)c(Cl)cc23)C[C@H]1C [Compound 107, 1-((2R,5S)-4-(6-chloro-2-(3-((2,2-difluoroethyl) (methyl)amino)azetidin-1-yl)-8-fluoro-7-(2-fluoro-6-hydroxyphenyl)quinazolin-4-yl)-2,5-dimethyl-piperazin-1-yl) prop-2-en-1-one]",++ (++ indicates binding activity from 50 to 90%)
3,"C=CC(=O)N1C[C@H](C)N(c2nc(OCCCN(C)C)nc3c(F)c(-c4c(O)ccc5ccccc45)c(Cl)cc23)C[C@H]1C [Compound 224, 1-((2R,5S)-4-(6-chloro-2-(3-(dimethylamino)propoxy)-8-fluoro-7-(2-hydroxy-naphthalen-1-yl)quinazolin-4-yl)-2,5-dimethyl-piperazin-1-yl) prop-2-en-1-one]",++ (++ indicates binding activity from 50 to 90%)
4,"C=CC(=O)N1C[C@H](C)N(c2nc(N3CC(N(C)C)C3)nc3c(F)c(-c4cc(O)cc5ccccc45)c(C(F)(F)F)cc23)C[C@H]1C [Compound 178, 1-((2R,5S)-4-(2-(3-(dimethylamino)azetidin-1-yl)-8-fluoro-7-(3-hydroxynaphthalen-1-yl)-6-(trifluoromethyl)quinazolin-4-yl)-2,5-dimethyl-piperazin-1-yl) prop-2-en-1-one]",+++ (+++ indicates binding activity greater than 90%)
5,"C=CC(=O)N1C[C@H](C)N(c2nc(OCCCN3CCC(F)(F)C3)nc3c(F)c(-c4c(O)cccc4F)c(Cl)cc23)C[C@H]1C [Compound 230, 1-((2R,5S)-4-(6-chloro-2-(3-(3,3-difluoropyrrolidin-1-yl)propoxy)-8-fluoro-7-(2-fluoro-6-hydroxyphenyl)quinazolin-4-yl)-2,5-dimethyl-piperazin-1-yl) prop-2-en-1-one]",++ (++ indicates binding activity from 50 to 90%)
6,"C=CC(=O)N1CCN(c2nc(N3CC(N(CC)CC)C3)nc3c(F)c(-c4c(C)ccc5[nH]ncc45)c(Cl)cc23)[C@@H](C)C1 [Compound 167, 1-((3S)-4-(6-chloro-2-(3-(diethylamino)azetidin-1-yl)-8-fluoro-7-(5-methyl-1H-indazol-4-yl)quinazolin-4-yl)-3-methyl-piperazin-1-yl) prop-2-en-1-one]",+++ (+++ indicates binding activity greater than 90%)
7,"C=CC(=O)N1CCN(c2nc(N3CC(C)(N(C)C)C3)nc3c(F)c(-c4c(C)ccc5[nH]ncc45)c(Cl)cc23)C[C@H]1C [Compound 171, 1-((2R)-4-(6-chloro-2-(3-(dimethylamino)-3-methylazetidin-1-yl)-8-fluoro-7-(5-methyl-1H-indazol-4-yl)quinazolin-4-yl)-2-methyl-piperazin-1-yl) prop-2-en-1-one]",++ (++ indicates binding activity from 50 to 90%)
8,"C=CC(=O)N1C[C@H](C)N(c2nc(N3CC(N(CC)C4CC4)C3)nc3c(F)c(-c4c(C)ccc5cn[nH]c45)c(Cl)cc23)C[C@H]1C [Compound 116, 1-((2R,5S)-4-(6-chloro-2-(3-(cyclopropyl (ethyl)amino)azetidin-1-yl)-8-fluoro-7-(6-methyl-1H-indazol-7-yl)quinazolin-4-yl)-2,5-dimethyl-piperazin-1-yl) prop-2-en-1-one]",++ (++ indicates binding activity from 50 to 90%)
9,"C=CC(=O)N1C[C@H](C)N(c2nc(N3CC(N(CC)C4CC4)C3)nc3c(F)c(-c4c(C)ccc5[nH]ncc45)c(Cl)cc23)C[C@H]1C [Compound 125, 1-((2R,5S)-4-(6-chloro-2-(3-(cyclopropyl (ethyl)amino)azetidin-1-yl)-8-fluoro-7-(5-methyl-1H-indazol-4-yl)quinazolin-4-yl)-2,5-dimethyl-piperazin-1-yl) prop-2-en-1-one]",++ (++ indicates binding activity from 50 to 90%)
10,"C=CC(=O)N1C[C@H](C)N(c2nc(OCCN3CC(F)(F)C3)nc3c(F)c(-c4c(C)ccc5cn[nH]c45)c(Cl)cc23)C[C@H]1C (atropisomer, axis not shown) [Compound 127, 1-((2R,5S)-4-(6-chloro-2-(2-(3,3-difluoroazetidin-1-yl)ethoxy)-8-fluoro-7-((R)-6-methyl-1H-indazol-7-yl)quinazolin-4-yl)-2,5-dimethyl-piperazin-1-yl) prop-2-en-1-one]",+++ (+++ indicates binding activity greater than 90%)
